Reference: article PMC8793051 (ACS Omega, 2022)

Columns and labels:
OVCAR-8 = assay: NCI-60 SRB growth assay; format: cell-based, human; conditions: for GI50 / TGI: OVCAR-8
SNB-75 = assay: NCI-60 SRB growth assay; format: cell-based, human; conditions: for GI50 / CC50: Homo sapiens; for GI50 / TGI: SNB-75; for CC50: SNB-75, read-out: LC50
M14 = assay: NCI-60 SRB growth assay; format: cell-based, human; conditions: for GI50 / CC50: Homo sapiens; for GI50 / TGI: M14; for CC50: M14, read-out: LC50
SK-MEL-2 = assay: NCI-60 SRB growth assay; format: cell-based, human; conditions: SK-MEL-2; for GI50: Homo sapiens
HL-60(TB) = assay: cells; conditions: Homo sapiens; for GI50: HL-60; for CC50: HL-60, read-out: LC50
HCT-15 = assay: NCI-60 SRB growth assay; format: cell-based, human; conditions: for TGI / GI50: HCT-15; for GI50 / CC50: Homo sapiens; for CC50: HCT-15, read-out: LC50
SF-539 = assay: NCI-60 SRB growth assay; format: cell-based, human; conditions: for GI50 / CC50: Homo sapiens; for GI50 / TGI: SF-539; for CC50: SF-539, read-out: LC50
MOLT-4 = assay: NCI-60 SRB growth assay; format: cell-based, human; conditions: for GI50 / CC50: Homo sapiens; for GI50 / TGI: MOLT-4; for CC50: MOLT-4, read-out: LC50
[1] = system: oligo-1: d(CGCGAATTCGCG)2; assay: UV thermal denaturation; format: binding
NCI/ADR-RES = assay: NCI-60 SRB growth assay; format: cell-based, human; conditions: for GI50 / CC50: Homo sapiens; for CC50: read-out: LC50
LOX IMVI = assay: NCI-60 SRB growth assay; format: cell-based, human
Hu Topo I = target: T1, Hu Topo I (Homo sapiens, UniProt P11387); assay: Plasmid DNA relaxation assay
T1 sequence (P11387 1-765): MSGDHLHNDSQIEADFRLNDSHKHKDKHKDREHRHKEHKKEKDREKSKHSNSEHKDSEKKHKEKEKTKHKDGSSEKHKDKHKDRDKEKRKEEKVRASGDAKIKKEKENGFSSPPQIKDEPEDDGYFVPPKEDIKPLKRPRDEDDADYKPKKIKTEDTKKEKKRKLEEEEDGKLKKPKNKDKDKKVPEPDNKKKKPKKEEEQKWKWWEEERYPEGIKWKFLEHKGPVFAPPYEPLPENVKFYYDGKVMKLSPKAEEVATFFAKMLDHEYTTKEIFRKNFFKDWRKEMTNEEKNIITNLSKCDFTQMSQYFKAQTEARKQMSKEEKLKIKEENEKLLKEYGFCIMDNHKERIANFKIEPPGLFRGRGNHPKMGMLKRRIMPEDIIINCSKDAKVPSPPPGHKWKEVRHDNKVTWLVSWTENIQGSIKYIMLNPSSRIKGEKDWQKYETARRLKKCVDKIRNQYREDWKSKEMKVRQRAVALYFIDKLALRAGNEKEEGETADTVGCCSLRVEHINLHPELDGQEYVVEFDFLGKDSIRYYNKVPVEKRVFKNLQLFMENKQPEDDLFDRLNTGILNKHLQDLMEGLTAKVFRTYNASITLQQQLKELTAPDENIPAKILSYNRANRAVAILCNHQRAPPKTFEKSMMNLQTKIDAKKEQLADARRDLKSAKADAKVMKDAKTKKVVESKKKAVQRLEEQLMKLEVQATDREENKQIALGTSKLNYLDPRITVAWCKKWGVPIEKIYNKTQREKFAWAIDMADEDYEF

MDA-MB-231/ATCC = assay: NCI-60 SRB growth assay; format: cell-based, human; conditions: for GI50 / CC50: Homo sapiens; for GI50 / TGI: MDA-MB-231; for CC50: MDA-MB-231, read-out: LC50
HCT-116 = assay: NCI-60 SRB growth assay; format: cell-based, human; conditions: for TGI / GI50: HCT-116; for GI50 / CC50: Homo sapiens; for CC50: HCT-116, read-out: LC50
MCF7 = assay: NCI-60 SRB growth assay; format: cell-based, human; conditions: for GI50: Homo sapiens
UACC-62 = assay: NCI-60 SRB growth assay; format: cell-based, human; conditions: for GI50 / CC50: Homo sapiens; for GI50 / TGI: UACC-62; for CC50: UACC-62, read-out: LC50
UO-31 = assay: NCI-60 SRB growth assay; format: cell-based, human; conditions: for GI50 / CC50: Homo sapiens; for GI50 / TGI: UO-31; for CC50: UO-31, read-out: LC50
RPMI-8226 = assay: NCI-60 SRB growth assay; format: cell-based, human; conditions: for GI50 / CC50: Homo sapiens; for GI50 / TGI: RPMI-8226; for CC50: RPMI-8226, read-out: LC50
DU-145 = assay: NCI-60 SRB growth assay; format: cell-based, human; conditions: for TGI / GI50: DU-145; for GI50 / CC50: Homo sapiens; for CC50: DU-145, read-out: LC50
MALME-3M = assay: NCI-60 SRB growth assay; format: cell-based, human; conditions: for TGI: MALME-3M
MDA-MB-435 = assay: NCI-60 SRB growth assay; format: cell-based, human; conditions: for GI50 / CC50: Homo sapiens; for GI50 / TGI: MDA-MB-435; for CC50: MDA-MB-435, read-out: LC50
A549/ATCC = assay: NCI-60 SRB growth assay; format: cell-based, human; conditions: for TGI: A549/ATCC; for GI50: Homo sapiens, A549
SK-MEL-5 = assay: NCI-60 SRB growth assay; format: cell-based, human; conditions: for GI50 / CC50: Homo sapiens; for GI50 / TGI: SK-MEL-5; for CC50: SK-MEL-5, read-out: LC50
EKVX = assay: NCI-60 SRB growth assay; format: cell-based, human
K-562 = assay: NCI-60 SRB growth assay; format: cell-based, human; conditions: for GI50: K562; for TGI: K-562

CCCN1CCN(c2ccc3[nH]c(-c4ccc5[nH]c(-c6ccc(OCC)c(OCC)c6)nc5c4)nc3c2)CC1 [11a, 2-(2-(3,4-Diethoxyphenyl)-1H-benzo[d]imidazol-5-yl)-5-(4-propylpiperazin-1-yl)-1H-benzo[d]imidazole]
GI50 (OVCAR-8; Homo sapiens): 0.45 µM
CC50 (OVCAR-8; Homo sapiens, OVCAR-8, read-out: LC50): > 100 µM
TGI (OVCAR-8): 2.16 µM
GI50 (SNB-75): 0.71 µM
CC50 (SNB-75): 4.3 µM
TGI (SNB-75): 1.9 µM
GI50 (M14): 0.25 µM
CC50 (M14): 5 µM
TGI (M14): 1.5 µM
GI50 (SK-MEL-2): 14 µM
TGI (SK-MEL-2): 3.1 µM
GI50 (HL-60(TB)): 0.37 µM
CC50 (HL-60(TB)): > 100 µM
TGI (HCT-15): 18.9 µM
GI50 (HCT-15): 2.42 µM
CC50 (HCT-15): > 100 µM
GI50 (SF-539): 0.79 µM
CC50 (SF-539): 4.8 µM
TGI (SF-539): 2.1 µM
GI50 (MOLT-4): 0.59 µM
CC50 (MOLT-4): > 100 µM
TGI (MOLT-4): 4.4 µM
ΔTm ([1]; r = 0.5): 3 °C
Tm ([1]; r = 0.5, oligo 2.5 μM): 57.7 °C
Tm ([1]; r = 1): 58.7 °C
ΔTm ([1]; r = 1): 4 °C
Tm ([1]; r = 1.5): 60.7 °C
ΔTm ([1]; r = 1.5): 6 °C
Tm ([1]; r = 2.0): 62.7 °C
ΔTm ([1]; r = 2.0): 8 °C
TGI (NCI/ADR-RES): >100 µM
GI50 (NCI/ADR-RES): > 100 µM
CC50 (NCI/ADR-RES): > 100 µM
TGI (LOX IMVI): 0.44 µM
GI50 (LOX IMVI; Homo sapiens): 0.2 µM
CC50 (LOX IMVI; Homo sapiens, read-out: LC50): 0.96 µM
IC90 (Hu Topo I): 140 µM
GI50 (MDA-MB-231/ATCC): 1.38 µM
CC50 (MDA-MB-231/ATCC): 6.78 µM
TGI (MDA-MB-231/ATCC): 3.06 µM
TGI (HCT-116): 1.23 µM
GI50 (HCT-116): 0.24 µM
CC50 (HCT-116): 4.7 µM
TGI (MCF7): 1.53 µM
GI50 (MCF7): 0.35 µM
GI50 (UACC-62): 0.4 µM
CC50 (UACC-62): 5.3 µM
TGI (UACC-62): 1.9 µM
GI50 (UO-31): 1.67 µM
CC50 (UO-31): 8.76 µM
TGI (UO-31): 3.82 µM
GI50 (RPMI-8226): 0.47 µM
CC50 (RPMI-8226): > 100 µM
TGI (RPMI-8226): 2.5 µM
TGI (DU-145): 2.02 µM
GI50 (DU-145): 0.44 µM
CC50 (DU-145): 12.4 µM
GI50 (MALME-3M; Homo sapiens, Malme-3M): 0.08 µM
CC50 (MALME-3M; Homo sapiens, Malme-3M, read-out: LC50): 3.9 µM
TGI (MALME-3M): 1.2 µM
GI50 (MDA-MB-435): 0.67 µM
CC50 (MDA-MB-435): 4.5 µM
TGI (MDA-MB-435): 1.9 µM
TGI (A549/ATCC): 3.02 µM
GI50 (A549/ATCC): 1.17 µM
GI50 (SK-MEL-5): 0.63 µM
CC50 (SK-MEL-5): 4.6 µM
TGI (SK-MEL-5): 2.01 µM
TGI (EKVX): 13.3 µM
GI50 (EKVX; Homo sapiens): 1.73 µM
CC50 (EKVX; Homo sapiens, read-out: LC50): > 100 µM
GI50 (K-562; Homo sapiens): 0.31 µM
TGI (K-562): 1.5 µM

CCCCN1CCN(c2ccc3[nH]c(-c4ccc5[nH]c(-c6ccc(OCC)c(OCC)c6)nc5c4)nc3c2)CC1 [12a, 5-(4-Butylpiperazin-1-yl)-2-(2-(3,4-diethoxyphenyl)-1H-benzo[d]imidazol-5-yl)-1H-benzo[d]imidazole]
GI50 (OVCAR-8; Homo sapiens): 0.89 µM
TGI (OVCAR-8): 3.06 µM
GI50 (SNB-75): 0.65 µM
CC50 (SNB-75): 4.54 µM
TGI (SNB-75): 2.01 µM
GI50 (M14): 0.31 µM
CC50 (M14): 4.68 µM
TGI (M14): 1.55 µM
GI50 (SK-MEL-2): 1.68 µM
TGI (SK-MEL-2): 3.66 µM
GI50 (HL-60(TB)): 0.7 µM
CC50 (HL-60(TB)): 67.9 µM
TGI (HCT-15): 3.32 µM
GI50 (HCT-15): 1.56 µM
CC50 (HCT-15): 7.05 µM
GI50 (SF-539): 1.26 µM
CC50 (SF-539): 5.2 µM
TGI (SF-539): 2.56 µM
GI50 (MOLT-4): 1.22 µM
CC50 (MOLT-4): 31.6 µM
TGI (MOLT-4): 3.86 µM
ΔTm ([1]; r = 0.5): 2 °C
Tm ([1]; r = 0.5, oligo 2.5 μM): 56.7 °C
Tm ([1]; r = 1): 57.7 °C
ΔTm ([1]; r = 1): 3 °C
Tm ([1]; r = 1.5): 58.7 °C
ΔTm ([1]; r = 1.5): 4 °C
Tm ([1]; r = 2.0): 61.7 °C
ΔTm ([1]; r = 2.0): 7 °C
TGI (NCI/ADR-RES): 100 µM
GI50 (NCI/ADR-RES): 100 µM
CC50 (NCI/ADR-RES): > 100 µM
TGI (LOX IMVI): 1.62 µM
GI50 (LOX IMVI; Homo sapiens): 0.42 µM
IC90 (Hu Topo I): 152 µM
GI50 (MDA-MB-231/ATCC): 1.69 µM
CC50 (MDA-MB-231/ATCC): 6.38 µM
TGI (MDA-MB-231/ATCC): 3.28 µM
TGI (HCT-116): 1.66 µM
GI50 (HCT-116): 0.43 µM
CC50 (HCT-116): 4.3 µM
TGI (MCF7): 1.42 µM
GI50 (MCF7): 0.19 µM
GI50 (UACC-62): 0.68 µM
CC50 (UACC-62): 5.42 µM
TGI (UACC-62): 2.18 µM
GI50 (UO-31): 2 µM
CC50 (UO-31): 43.8 µM
TGI (UO-31): 5.80 µM
GI50 (RPMI-8226): 0.43 µM
CC50 (RPMI-8226): > 100 µM
TGI (RPMI-8226): 2.06 µM
TGI (DU-145): 2.21 µM
GI50 (DU-145): 1 µM
CC50 (DU-145): 4.88 µM
GI50 (MALME-3M; Homo sapiens, Malme-3M): 0.19 µM
TGI (MALME-3M): 1.18 µM
GI50 (MDA-MB-435): 1.09 µM
CC50 (MDA-MB-435): 5.24 µM
TGI (MDA-MB-435): 2.39 µM
TGI (A549/ATCC): 2.93 µM
GI50 (A549/ATCC): 1.18 µM
GI50 (SK-MEL-5): 1.09 µM
CC50 (SK-MEL-5): 9.22 µM
TGI (SK-MEL-5): 3.16 µM
TGI (EKVX): 3.18 µM
GI50 (EKVX; Homo sapiens): 1.38 µM
GI50 (K-562; Homo sapiens): 0.52 µM
CC50 (K-562; Homo sapiens, K562, read-out: LC50): 7.53 µM
TGI (K-562): 2.27 µM
